# In ChEMBL document CHEMBL4002623, “Synthesis and in vitro activity of dicationic indolyl diphenyl ethers as novel potent antibiotic agents against drug-resistant bacteria” (Bioorg Med Chem Lett, 2017):
# Key:
# [1] = test system: Staphylococcus epidermidis; assay: Antibacterial activity against methicillin-sensitive Staphylococcus epidermidis ATCC 12228 by agar dilution method; format: functional
# Providencia rettgeri = assay: Antibacterial activity against Providencia rettgeri ATCC 31052 by agar dilution method; format: functional
# [2] = test system: Staphylococcus epidermidis; assay: Antibacterial activity against methicillin-sensitive Staphylococcus epidermidis 09-9 by agar dilution method; format: functional
# Pseudomonas aeruginosa [3] = assay: Antibacterial activity against Pseudomonas aeruginosa ATCC 27853 by agar dilution method; format: functional
# [4] = test system: Acinetobacter calcoaceticus; assay: Antibacterial activity against Acinetobacter calcoaceticus ATCC 19606 by agar dilution method; format: functional
# Staphylococcus aureus [5] = assay: Antibacterial activity against methicillin-sensitive Staphylococcus aureus 09-6 by agar dilution method; format: functional
# Escherichia coli [6] = assay: Antibacterial activity against extended-spectrum beta-lactamase-positive Escherichia coli 09-1 by agar dilution method; format: functional
# Enterococcus faecalis [7] = assay: Antibacterial activity against vancomycin-sensitive Enterococcus faecalis 09-8 by agar dilution method; format: functional
# Enterococcus faecalis [8] = assay: Antibacterial activity against vancomycin-sensitive Enterococcus faecalis ATCC 29212 by agar dilution method; format: functional
# Proteus vulgaris = assay: Antibacterial activity against Proteus vulgaris ATCC 29905 by agar dilution method; format: functional
# Klebsiella pneumoniae [9] = assay: Antibacterial activity against extended-spectrum beta-lactamase-positive Klebsiella pneumoniae 09-25 by agar dilution method; format: functional
# Enterococcus faecium [10] = assay: Antibacterial activity against vancomycin-resistant Enterococcus faecium 05-8 by agar dilution method; format: functional
# Morganella morganii = assay: Antibacterial activity against Morganella morganii ATCC 25830 by agar dilution method; format: functional
# [11] = test system: Staphylococcus epidermidis; assay: Antibacterial activity against methicillin-resistant Staphylococcus epidermidis 09-3 by agar dilution method; format: functional
# [12] = Cytotoxicity against HEK293T cells after 48 hrs by MTS assay; format: cell-based, HEK-293T; conditions: human
# Serratia marcescens = assay: Antibacterial activity against Serratia marcescens 41002 by agar dilution method; format: functional
# Enterococcus faecalis [13] = assay: Antibacterial activity against vancomycin-resistant Enterococcus faecalis ATCC 51299 by agar dilution method; format: functional
# Pseudomonas aeruginosa [14] = assay: Antibacterial activity against Pseudomonas aeruginosa PAO1 by agar dilution method; format: functional
# Escherichia coli [15] = assay: Antibacterial activity against extended-spectrum beta-lactamase-negative Escherichia coli 09-20 by agar dilution method; format: functional
# Escherichia coli [16] = assay: Antibacterial activity against extended-spectrum beta-lactamase-negative Escherichia coli 1515 by agar dilution method; format: functional
# Enterobacter cloacae = assay: Antibacterial activity against Enterobacter cloacae 45301 by agar dilution method; format: functional
# Staphylococcus aureus [17] = assay: Antibacterial activity against methicillin-sensitive Staphylococcus aureus 15 by agar dilution method; format: functional
# Salmonella typhi = assay: Antibacterial activity against Salmonella typhi H901 by agar dilution method; format: functional, Salmonella enterica subsp. enterica serovar Typhi; conditions: Salmonella enterica
# Escherichia coli [18] = assay: Antibacterial activity against extended-spectrum beta-lactamase-negative Escherichia coli ATCC 25922 by agar dilution method; format: functional
# Staphylococcus aureus [19] = assay: Antibacterial activity against methicillin-resistant Staphylococcus aureus ATCC 33591 by agar dilution method; format: functional
# Citrobacter freundii = assay: Antibacterial activity against Citrobacter freundii ATCC 43864 by agar dilution method; format: functional
# Enterococcus faecium [20] = assay: Antibacterial activity against vancomycin-sensitive Enterococcus faecium 09-10 by agar dilution method; format: functional
# Klebsiella pneumoniae [21] = assay: Antibacterial activity against Klebsiella pneumoniae ATCC BAA-2146 expressing NDM-1 by agar dilution method; format: functional
# Proteus mirabilis = assay: Antibacterial activity against Proteus mirabilis 09-1 by agar dilution method; format: functional
# Klebsiella pneumoniae [22] = assay: Antibacterial activity against extended-spectrum beta-lactamase-negative Klebsiella pneumoniae 7 by agar dilution method; format: functional
# Klebsiella pneumoniae [23] = assay: Antibacterial activity against extended-spectrum beta-lactamase-negative Klebsiella pneumoniae 09-8 by agar dilution method; format: functional
# Staphylococcus aureus [24] = assay: Antibacterial activity against methicillin-sensitive Staphylococcus aureus ATCC 29213 by agar dilution method; format: functional
# Staphylococcus aureus [25] = assay: Antibacterial activity against methicillin-resistant Staphylococcus aureus 09-13 by agar dilution method; format: functional
# Enterococcus faecium [26] = assay: Antibacterial activity against vancomycin-resistant Enterococcus faecium ATCC 700221 by agar dilution method; format: functional
# Pseudomonas aeruginosa [27] = assay: Antibacterial activity against Pseudomonas aeruginosa 09-14 by agar dilution method; format: functional
# Klebsiella pneumoniae [28] = assay: Potency index, ratio of levofloxacin MIC to test compound MIC for Klebsiella pneumoniae ATCC BAA-2146 expressing NDM-1; format: functional
# Klebsiella aerogenes = assay: Antibacterial activity against Enterobacter aerogenes 45102 by agar dilution method; format: functional
# Enterococcus faecalis [29] = assay: Antibacterial activity against vancomycin-resistant Enterococcus faecalis 09-9 by agar dilution method; format: functional
# Klebsiella pneumoniae [30] = assay: Antibacterial activity against extended-spectrum beta-lactamase-positive Klebsiella pneumoniae ATCC 700603 by agar dilution method; format: functional
# [31] = test system: Staphylococcus epidermidis; assay: Potency index, ratio of levofloxacin MIC to test compound MIC for methicillin-resistant Staphylococcus epidermidis 09-3; format: functional
# Staphylococcus aureus [32] = assay: Potency index, ratio of levofloxacin MIC to test compound MIC for methicillin-resistant Staphylococcus aureus 09-13; format: functional
# Enterococcus faecalis [33] = assay: Potency index, ratio of levofloxacin MIC to test compound MIC for vancomycin-resistant Enterococcus faecalis 09-9; format: functional
# Enterococcus faecium [34] = assay: Potency index, ratio of levofloxacin MIC to test compound MIC for vancomycin-resistant Enterococcus faecium ATCC 700221; format: functional
structure (smiles),measurement,setting,value
CN(C)C(=N)c1ccc2cc(-c3ccc(Oc4ccc(-c5cc6ccc(C(=N)N(C)C)cc6[nH]5)cc4)cc3)[nH]c2c1,MIC,[1],0.125 µg/mL
same,MIC,Providencia rettgeri,8 µg/mL
same,MIC,[2],0.25 µg/mL
same,MIC,Pseudomonas aeruginosa [3],128 µg/mL
same,MIC,[4],> 128 µg/mL
same,MIC,Staphylococcus aureus [5],0.25 µg/mL
same,MIC,Escherichia coli [6],8 µg/mL
same,MIC,Enterococcus faecalis [7],2 µg/mL
same,MIC,Enterococcus faecalis [8],0.5 µg/mL
same,MIC,Proteus vulgaris,8 µg/mL
same,MIC,Klebsiella pneumoniae [9],8 µg/mL
same,MIC,Enterococcus faecium [10],2 µg/mL
same,MIC,Morganella morganii,> 128 µg/mL
same,MIC,[11],0.25 µg/mL
same,CC50 at 48 h,[12],21.6 µg/mL
same,MIC,Serratia marcescens,32 µg/mL
same,MIC,Enterococcus faecalis [13],1 µg/mL
same,MIC,Pseudomonas aeruginosa [14],> 128 µg/mL
same,MIC,Escherichia coli [15],8 µg/mL
same,MIC,Escherichia coli [16],4 µg/mL
same,MIC,Enterobacter cloacae,64 µg/mL
same,MIC,Staphylococcus aureus [17],0.25 µg/mL
same,MIC,Salmonella typhi,16 µg/mL
same,MIC,Escherichia coli [18],4 µg/mL
same,MIC,Staphylococcus aureus [19],0.25 µg/mL
same,MIC,Citrobacter freundii,8 µg/mL
same,MIC,Enterococcus faecium [20],2 µg/mL
same,MIC,Klebsiella pneumoniae [21],8 µg/mL
same,MIC,Proteus mirabilis,32 µg/mL
same,MIC,Klebsiella pneumoniae [22],8 µg/mL
same,MIC,Klebsiella pneumoniae [23],8 µg/mL
same,MIC,Staphylococcus aureus [24],0.25 µg/mL
same,MIC,Staphylococcus aureus [25],0.25 µg/mL
same,MIC,Enterococcus faecium [26],2 µg/mL
same,MIC,Pseudomonas aeruginosa [27],> 128 µg/mL
same,Ratio,Klebsiella pneumoniae [28],>16
same,MIC,Klebsiella aerogenes,8 µg/mL
same,MIC,Enterococcus faecalis [29],2 µg/mL
same,MIC,Klebsiella pneumoniae [30],8 µg/mL
N=C(c1ccc2cc(-c3ccc(Oc4ccc(-c5cc6ccc(C(=N)N7CCOCC7)cc6[nH]5)cc4)cc3)[nH]c2c1)N1CCOCC1,MIC,[1],2 µg/mL
same,MIC,Providencia rettgeri,> 128 µg/mL
same,MIC,[2],2 µg/mL
same,MIC,Pseudomonas aeruginosa [3],> 128 µg/mL
same,MIC,[4],> 128 µg/mL
same,MIC,Staphylococcus aureus [5],2 µg/mL
same,MIC,Escherichia coli [6],128 µg/mL
same,MIC,Enterococcus faecalis [7],8 µg/mL
same,MIC,Enterococcus faecalis [8],8 µg/mL
same,MIC,Proteus vulgaris,> 128 µg/mL
same,MIC,Klebsiella pneumoniae [9],> 128 µg/mL
same,MIC,Enterococcus faecium [10],8 µg/mL
same,MIC,Morganella morganii,16 µg/mL
same,MIC,[11],2 µg/mL
same,CC50 at 48 h,[12],4.9 µg/mL
same,MIC,Serratia marcescens,> 128 µg/mL
same,MIC,Enterococcus faecalis [13],4 µg/mL
same,MIC,Pseudomonas aeruginosa [14],> 128 µg/mL
same,MIC,Escherichia coli [15],64 µg/mL
same,MIC,Escherichia coli [16],128 µg/mL
same,MIC,Enterobacter cloacae,> 128 µg/mL
same,MIC,Staphylococcus aureus [17],1 µg/mL
same,MIC,Salmonella typhi,64 µg/mL
same,MIC,Escherichia coli [18],32 µg/mL
same,MIC,Staphylococcus aureus [19],2 µg/mL
same,MIC,Citrobacter freundii,> 128 µg/mL
same,MIC,Enterococcus faecium [20],4 µg/mL
same,MIC,Klebsiella pneumoniae [21],> 128 µg/mL
same,MIC,Proteus mirabilis,> 128 µg/mL
same,MIC,Klebsiella pneumoniae [22],> 128 µg/mL
same,MIC,Klebsiella pneumoniae [23],> 128 µg/mL
same,MIC,Staphylococcus aureus [24],2 µg/mL
same,MIC,Staphylococcus aureus [25],2 µg/mL
same,MIC,Enterococcus faecium [26],2 µg/mL
same,MIC,Pseudomonas aeruginosa [27],> 128 µg/mL
same,MIC,Klebsiella aerogenes,> 128 µg/mL
same,MIC,Enterococcus faecalis [29],16 µg/mL
same,MIC,Klebsiella pneumoniae [30],> 128 µg/mL
N=C(c1ccc2cc(-c3ccc(Oc4ccc(-c5cc6ccc(C(=N)N7CCC7)cc6[nH]5)cc4)cc3)[nH]c2c1)N1CCC1,MIC,[1],0.125 µg/mL
same,MIC,Providencia rettgeri,> 128 µg/mL
same,MIC,[2],0.5 µg/mL
same,MIC,Pseudomonas aeruginosa [3],128 µg/mL
same,Ratio,[31],4 - 8
same,MIC,[4],> 128 µg/mL
same,MIC,Staphylococcus aureus [5],2 µg/mL
same,MIC,Escherichia coli [6],64 µg/mL
same,MIC,Enterococcus faecalis [7],2 µg/mL
same,MIC,Enterococcus faecalis [8],2 µg/mL
same,MIC,Proteus vulgaris,128 µg/mL
same,MIC,Klebsiella pneumoniae [9],64 to 128 µg/mL
same,Ratio,Staphylococcus aureus [32],4 - 8
same,MIC,Enterococcus faecium [10],2 µg/mL
same,MIC,Morganella morganii,8 µg/mL
same,MIC,[11],0.5 µg/mL
same,Ratio,Enterococcus faecalis [33],16 - 64
same,CC50 at 48 h,[12],21.6 µg/mL
same,Ratio,Enterococcus faecium [34],16 - 64
same,MIC,Serratia marcescens,128 µg/mL
same,MIC,Enterococcus faecalis [13],2 µg/mL
same,MIC,Pseudomonas aeruginosa [14],> 128 µg/mL
same,MIC,Escherichia coli [15],64 µg/mL
same,MIC,Escherichia coli [16],64 µg/mL
same,MIC,Enterobacter cloacae,> 128 µg/mL
same,MIC,Staphylococcus aureus [17],0.5 µg/mL
same,MIC,Salmonella typhi,32 µg/mL
same,MIC,Escherichia coli [18],16 µg/mL
same,MIC,Staphylococcus aureus [19],0.5 µg/mL
same,MIC,Citrobacter freundii,64 µg/mL
same,MIC,Enterococcus faecium [20],8 µg/mL
same,MIC,Klebsiella pneumoniae [21],64 to 128 µg/mL
same,MIC,Proteus mirabilis,128 µg/mL
same,MIC,Klebsiella pneumoniae [22],64 µg/mL
same,MIC,Klebsiella pneumoniae [23],64 µg/mL
same,MIC,Staphylococcus aureus [24],2 µg/mL
same,MIC,Staphylococcus aureus [25],0.5 µg/mL
same,MIC,Enterococcus faecium [26],2 µg/mL
same,MIC,Pseudomonas aeruginosa [27],> 128 µg/mL
same,MIC,Klebsiella aerogenes,64 µg/mL
same,MIC,Enterococcus faecalis [29],8 µg/mL
same,MIC,Klebsiella pneumoniae [30],64 µg/mL
